Assays:
[1] = target: T1, Estrogen-related receptor gamma (Homo sapiens, UniProt P62508); test: Estrogen-Related Receptor gamma activity in FRET assay; i.a.=inactive at 3 uM; assay type: functional
T1 sequence (P62508 whole entry): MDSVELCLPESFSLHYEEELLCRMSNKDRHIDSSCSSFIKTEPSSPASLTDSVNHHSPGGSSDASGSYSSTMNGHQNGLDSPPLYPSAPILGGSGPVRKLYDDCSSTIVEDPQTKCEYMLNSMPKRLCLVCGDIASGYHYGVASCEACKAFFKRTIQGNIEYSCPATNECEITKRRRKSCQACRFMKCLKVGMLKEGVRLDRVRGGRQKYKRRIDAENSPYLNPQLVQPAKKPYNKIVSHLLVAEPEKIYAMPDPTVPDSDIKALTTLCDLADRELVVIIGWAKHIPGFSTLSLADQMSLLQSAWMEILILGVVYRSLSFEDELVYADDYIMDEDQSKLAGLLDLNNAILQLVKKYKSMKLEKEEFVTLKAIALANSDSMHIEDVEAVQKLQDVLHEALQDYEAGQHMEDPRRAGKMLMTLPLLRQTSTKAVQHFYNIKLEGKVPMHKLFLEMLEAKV

[2] = target: T1, Estrogen-related receptor gamma; test: Estrogen-Related Receptor gamma activity in FRET assay; assay type: functional
[3] = target: T1, Estrogen-related receptor gamma; test: Inhibition of [3H]4-OHT binding to Estrogen-Related Receptor gamma

SMILES	EC50 [1]	EC50 [2] [nM]	IC50 [3] [nM]
CCN(CC)c1ccc(/C=N/NC(=O)c2ccc(O)cc2)c(O)c1	Not Active		
CCN(CC)c1ccc(/C=N/NS(=O)(=O)c2ccc(O)cc2)cc1	Not Active		
CCN(CC)c1ccc(/C=N/NC(=O)c2ccc(O)cc2)cc1		130	660
CC(C)(C)Oc1ccc(/C=N/NC(=O)c2ccc(O)cc2)cc1	Not Active		
CCN(CC)c1ccc(/C=N/NC(=O)c2ccc(F)cc2)cc1	Not Active		

Other lines, results leading:

EC50 [1]	EC50 [2] [nM]	IC50 [3] [nM]	SMILES
Not Active			CC(C)c1ccc(C(=O)NNC(=O)c2ccc(O)cc2)cc1
	500		CCN(CC)c1ccc(/C(C)=N/NC(=O)c2ccc(O)cc2)cc1
	1600		CCN(CC)c1ccc(/C=N/NC(=O)c2ccccc2)cc1
	630		CCN(CC)c1ccc(/C=N/NC(=O)c2ccc(N)cc2)cc1

Reference: ChEMBL document CHEMBL1143621, “Identification and structure-activity relationship of phenolic acyl hydrazones as selective agonists for the estrogen-related orphan nuclear receptors ERRbeta and ERRgamma” (J Med Chem, 2005)
